Results on ten compounds are retold here after patent US10030020B2, “Spirocycle compounds and methods of making and using same” (Abide Therapeutics, Inc., priority 2016, dated 2018).

For experiment [1], the target named is T1, FAAH (Mus musculus (Mouse), UniProt O08914). Nature of the experiment: In vitro competitive activity-based protein profiling (mouse brain membrane fraction or cell lysates), FAAH band. It is filed as biochemical. The note with it: mouse proteome; for inhibition at 1 µM: read-out: FAAH % Inh 1 μM (mouse); for IC50: competitive ABPP. The method, boiled down:
(§1)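 Residual hydrolase activity was measured as gel band fluorescence after FP-Rh labelling (30 min, 37° C) of proteomes pretreated 30 min at 37° C with inhibitor.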

Experiment [2] has as its target T2, MAGL (Mus musculus (Mouse), UniProt O35678). Nature of the experiment: Mouse brain proteomes from inhibitor treated mice (oral gavage, sacrificed 4 h after administration, ABPP analysis). Format: in vivo, mouse (C57Bl/6J). The note with it: 5 mg/kg oral gavage. On the procedure: (§2) Preparation of Mouse Brain Proteomes from Inhibitor Treated Mice.
(§3) Inhibitors were administered to wild-type C57Bl/6J by oral gavage in a vehicle, e.g. PEG400/Ethanol/PBS (7/2/1). Each animal was sacrificed 4 h following administration and brain proteomes were prepared and analyzed according to previously established methods (See Niphakis, M. J., et al. (2011) ACS Chem. Neurosci. and Long, J. Z., et al. Nat. Chem. Biol. 5:37-44). Data from this assay is shown in Table 2 (% inhibition at 5 mg/kg).

Experiment [3] has as its target T3, ABHD6 (Mus musculus (Mouse), UniProt Q8R2Y0). Nature of the experiment: In vitro competitive activity-based protein profiling (mouse brain membrane fraction or cell lysates), ABHD6 band. To be noted: mouse proteome; for inhibition at 1 µM: read-out: ABHD6 % Inh 1 μM (mouse); for IC50: competitive ABPP. Format: biochemical. The method, boiled down: as §1
Experiment [4] concerns the target T2, MAGL. The experiment is described as follows: In vitro competitive activity-based protein profiling (mouse brain membrane fraction or cell lysates), MAGL band. Format: biochemical. The note with it: mouse proteome; for inhibition at 1 µM: read-out: MAGL % Inh 1 μM (mouse); for IC50: competitive ABPP. On the procedure:
In Vitro Competitive Activity-Based Protein Profiling.
Proteomes (mouse brain membrane fraction or cell lysates) (50 μL, 1.0 mg/mL total protein concentration) were preincubated with varying concentrations of inhibitors at 37° C. After 30 min, FP—Rh (1.0 μL, 50 μM in DMSO) was added and the mixture was incubated for another 30 min at 37° C. Reactions were quenched with SDS loading buffer (50 μL-4×) and run on SDS-PAGE.

The target of experiment [5] is T1, FAAH. Nature of the experiment: Mouse brain proteomes from inhibitor treated mice (oral gavage, sacrificed 4 h after administration, ABPP analysis), FAAH. Format: in vivo, mouse (C57Bl/6J). To be noted: 5 mg/kg oral gavage. The procedure: as §2, §3
The target in experiment [6] is T3, ABHD6. Nature of the experiment: Mouse brain proteomes from inhibitor treated mice (oral gavage, sacrificed 4 h after administration, ABPP analysis), ABHD6. Format: in vivo, mouse (C57Bl/6J). The note with it: 5 mg/kg oral gavage. The procedure:
as §2, §3

T1 sequence (O08914 whole entry): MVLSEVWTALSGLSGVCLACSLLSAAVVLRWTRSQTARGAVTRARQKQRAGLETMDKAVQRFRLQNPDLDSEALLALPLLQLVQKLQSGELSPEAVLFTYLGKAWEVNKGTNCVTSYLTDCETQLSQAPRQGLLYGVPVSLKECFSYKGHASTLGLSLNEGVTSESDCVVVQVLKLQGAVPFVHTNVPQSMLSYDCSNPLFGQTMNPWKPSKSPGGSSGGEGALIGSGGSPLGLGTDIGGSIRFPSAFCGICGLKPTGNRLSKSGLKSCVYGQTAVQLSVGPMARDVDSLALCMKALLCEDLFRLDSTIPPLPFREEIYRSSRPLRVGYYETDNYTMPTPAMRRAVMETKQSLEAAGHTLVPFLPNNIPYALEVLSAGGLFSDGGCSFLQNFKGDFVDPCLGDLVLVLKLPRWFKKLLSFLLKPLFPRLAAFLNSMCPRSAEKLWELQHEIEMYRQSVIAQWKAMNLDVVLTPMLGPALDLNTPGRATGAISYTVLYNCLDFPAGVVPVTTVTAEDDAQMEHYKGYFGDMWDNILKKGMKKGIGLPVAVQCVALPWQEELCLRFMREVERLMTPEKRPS
T2 sequence (O35678 whole entry): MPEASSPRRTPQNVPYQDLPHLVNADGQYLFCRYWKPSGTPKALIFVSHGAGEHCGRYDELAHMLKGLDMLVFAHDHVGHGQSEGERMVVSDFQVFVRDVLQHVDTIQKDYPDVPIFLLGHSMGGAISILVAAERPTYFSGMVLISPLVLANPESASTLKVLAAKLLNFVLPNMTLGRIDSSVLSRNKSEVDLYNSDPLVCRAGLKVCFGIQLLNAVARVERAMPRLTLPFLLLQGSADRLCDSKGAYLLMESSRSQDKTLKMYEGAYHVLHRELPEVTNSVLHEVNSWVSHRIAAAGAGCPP
T3 sequence (Q8R2Y0 whole entry): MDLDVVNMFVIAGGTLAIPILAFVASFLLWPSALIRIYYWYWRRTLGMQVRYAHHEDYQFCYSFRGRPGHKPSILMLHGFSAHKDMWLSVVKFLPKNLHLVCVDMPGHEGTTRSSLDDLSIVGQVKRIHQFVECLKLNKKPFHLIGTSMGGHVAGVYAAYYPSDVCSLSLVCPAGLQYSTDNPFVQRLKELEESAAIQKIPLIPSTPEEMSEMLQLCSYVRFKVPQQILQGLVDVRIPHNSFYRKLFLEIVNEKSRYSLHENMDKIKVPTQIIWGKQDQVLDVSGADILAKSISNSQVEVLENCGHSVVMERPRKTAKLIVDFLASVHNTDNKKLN

As to `O=C(OC(C(F)(F)F)C(F)(F)F)N1CCC2(CCCN2Cc2ccc(F)c(OCCF)c2)CC1` [Example 29, 1,1,1,3,3,3-Hexafluoropropan-2-yl 1-(4-fluoro-3-(2-fluoroethoxy)benzyl)-1,8-diazaspiro[4.5]decane-8-carboxylate], the results for the inhibition at 1 µM on FAAH [1], on ABHD6 [3] and on MAGL [4] were under 25%, at least 75% and over 75%, respectively. Moreover, the half-maximal inhibitory concentration (IC50) at FAAH [1] is over 1 µM; at ABHD6 [3], over 1 µM; on MAGL [4], under 0.1 µM. Also, the “MAGL % Inh 5 mg/kg (mouse)” value on MAGL [2] is given as “### (### is ≥75%)”. Besides, the “FAAH % Inh 5 mg/kg (mouse)” value on FAAH [5] is listed as “## (## is equal to or greater than 25% but less than 75%)”. In addition, the “ABHD6 % Inh 5 mg/kg (mouse)” value on ABHD6 [6] was “### (### is ≥75%)”.

Consider `O=C(OC(C(F)(F)F)C(F)(F)F)N1CCC2(CCCN2Cc2ccc(Cl)cc2OCCF)CC1` [Example 30, 1,1,1,3,3,3-Hexafluoropropan-2-yl 1-(4-chloro-2-(2-fluoroethoxy)benzyl)-1,8-diazaspiro[4.5]decane-8-carboxylate], for which the inhibition at 1 µM at FAAH [1] is under 25%; at ABHD6 [3] it was under 25%; on MAGL [4] it was over 75%. The IC50 at FAAH [1] was over 1 µM; on ABHD6 [3], over 1 µM; on MAGL [4], under 0.1 µM. In addition, the “MAGL % Inh 5 mg/kg (mouse)” value on MAGL [2] was “### (### is ≥75%)”. Moreover, the “FAAH % Inh 5 mg/kg (mouse)” value at FAAH [5] is recorded as “# (# is <25%)”. The “ABHD6 % Inh 5 mg/kg (mouse)” value on ABHD6 [6] was “# (# is <25%)”.

With `O=C(OC(C(F)(F)F)C(F)(F)F)N1CCC2(CCCN2Cc2ccc(OCCF)cc2)CC1` [Example 31, 1,1,1,3,3,3-Hexafluoropropan-2-yl 1-(4-(2-fluoroethoxy)benzyl)-1,8-diazaspiro[4.5]decane-8-carboxylate], the inhibition at 1 µM on FAAH [1] was under 25%; on ABHD6 [3], under 25%; on MAGL [4], over 75%. Further, the half-inhibitory concentration (IC50) at FAAH [1] is over 1 µM; at ABHD6 [3], over 1 µM; at MAGL [4] it was under 0.1 µM. The “MAGL % Inh 5 mg/kg (mouse)” value at MAGL [2] was “### (### is ≥75%)”. Besides, the “FAAH % Inh 5 mg/kg (mouse)” value at FAAH [5] is recorded as “# (# is <25%)”. Moreover, the “ABHD6 % Inh 5 mg/kg (mouse)” value at ABHD6 [6] is reported as “## (## is equal to or greater than 25% but less than 75%)”.

In the case of `CCOc1cc(CN2CCCC23CCN(C(=O)OC(C(F)(F)F)C(F)(F)F)CC3)ccc1Cl` [Example 32, 1,1,1,3,3,3-Hexafluoropropan-2-yl 1-(4-chloro-3-ethoxybenzyl)-1,8-diazaspiro[4.5]decane-8-carboxylate], the inhibition at 1 µM was under 25% on FAAH [1], under 25% on ABHD6 [3] and over 75% on MAGL [4]. For the same compound, the IC50 at FAAH [1] was over 1 µM; at ABHD6 [3] it was over 1 µM; at MAGL [4] it was under 0.1 µM. Besides, at MAGL [2], the “MAGL % Inh 5 mg/kg (mouse)” value is reported as “### (### is ≥75%)”. Besides, on FAAH [5], the “FAAH % Inh 5 mg/kg (mouse)” value was “# (# is <25%)”. At ABHD6 [6], the “ABHD6 % Inh 5 mg/kg (mouse)” value is “# (# is <25%)”.

With `O=C(OC(C(F)(F)F)C(F)(F)F)N1CCC2(CCCN2Cc2cc(Cl)cc(N3CCOCC3)c2)CC1` [Example 33, 1,1,1,3,3,3-Hexafluoropropan-2-yl 1-(3-chloro-5-morpholinobenzyl)-1,8-diazaspiro[4.5]decane-8-carboxylate], the figures for the inhibition at 1 µM on FAAH [1], at ABHD6 [3] and on MAGL [4] were under 25%, under 25% and over 75%, respectively. For the same compound, the IC50 on FAAH [1] was over 1 µM; on ABHD6 [3] it was over 1 µM; on MAGL [4], under 0.1 µM. Also, at MAGL [2], the “MAGL % Inh 5 mg/kg (mouse)” value is “### (### is ≥75%)”. Besides, the “FAAH % Inh 5 mg/kg (mouse)” value on FAAH [5] is “## (## is equal to or greater than 25% but less than 75%)”. In addition, the “ABHD6 % Inh 5 mg/kg (mouse)” value at ABHD6 [6] is “# (# is <25%)”.

On to `O=C(OC(C(F)(F)F)C(F)(F)F)N1CCC2(CCCN2Cc2cc(Cl)cc(N3CCCC3)c2)CC1` [Example 34, 1,1,1,3,3,3-Hexafluoropropan-2-yl 1-(3-chloro-5-(pyrrolidin-1-yl)benzyl)-1,8-diazaspiro[4.5]decane-8-carboxylate], for which the inhibition at 1 µM was under 25% at FAAH [1], under 25% at ABHD6 [3] and over 75% on MAGL [4]. Moreover, the results for the IC50 at FAAH [1], on ABHD6 [3] and on MAGL [4] were over 1 µM, over 1 µM and under 0.1 µM, respectively. Also, the “MAGL % Inh 5 mg/kg (mouse)” value at MAGL [2] was “### (### is ≥75%)”. Moreover, the “FAAH % Inh 5 mg/kg (mouse)” value on FAAH [5] was “# (# is <25%)”. In addition, the “ABHD6 % Inh 5 mg/kg (mouse)” value on ABHD6 [6] is listed as “# (# is <25%)”.

On to `O=C(OC(C(F)(F)F)C(F)(F)F)N1CCC2(CCCN2Cc2cc(N3CCOCC3)cc(C(F)(F)F)c2)CC1` [Example 35, 1,1,1,3,3,3-Hexafluoropropan-2-yl 1-(3-morpholino-5-(trifluoromethyl)benzyl)-1,8-diazaspiro[4.5]decane-8-carboxylate], for which the inhibition at 1 µM at FAAH [1] was under 25%; on ABHD6 [3], under 25%; on MAGL [4], over 75%. The values for the IC50 on FAAH [1], at ABHD6 [3] and on MAGL [4] were over 1 µM, over 1 µM and under 0.1 µM, respectively. Also, the “MAGL % Inh 5 mg/kg (mouse)” value at MAGL [2] was “### (### is ≥75%)”. Besides, the “FAAH % Inh 5 mg/kg (mouse)” value at FAAH [5] was “# (# is <25%)”. Moreover, the “ABHD6 % Inh 5 mg/kg (mouse)” value on ABHD6 [6] was “# (# is <25%)”.

On to `O=C(OC(C(F)(F)F)C(F)(F)F)N1CCC2(CCCN2Cc2cc(N3CCCC3)cc(C(F)(F)F)c2)CC1` [Example 36, 1,1,1,3,3,3-Hexafluoropropan-2-yl 1-(3-(pyrrolidin-1-yl)-5-(trifluoromethyl)benzyl)-1,8-diazaspiro[4.5]decane-8-carboxylate], for which the inhibition at 1 µM was under 25% at FAAH [1], under 25% on ABHD6 [3] and over 75% on MAGL [4]. Moreover, the results for the IC50 at FAAH [1], at ABHD6 [3] and at MAGL [4] were over 1 µM, over 1 µM and under 0.1 µM, respectively. Also, the “MAGL % Inh 5 mg/kg (mouse)” value on MAGL [2] is “### (### is ≥75%)”. At FAAH [5], the “FAAH % Inh 5 mg/kg (mouse)” value is given as “# (# is <25%)”. Besides, at ABHD6 [6], the “ABHD6 % Inh 5 mg/kg (mouse)” value was “# (# is <25%)”.

Regarding `O=C(OC(C(F)(F)F)C(F)(F)F)N1CCC2(CCCN2Cc2cc(OC(F)(F)F)cc(N3CCOCC3)c2)CC1` [Example 37, 1,1,1,3,3,3-Hexafluoropropan-2-yl 1-(3-morpholino-5-(trifluoromethoxy)benzyl)-1,8-diazaspiro[4.5]decane-8-carboxylate], the inhibition at 1 µM at FAAH [1] was under 25%; on ABHD6 [3], under 25%; on MAGL [4], over 75%. In addition, the IC50 on FAAH [1] is over 1 µM; on ABHD6 [3] it was over 1 µM; on MAGL [4], under 0.1 µM. Moreover, the “MAGL % Inh 5 mg/kg (mouse)” value at MAGL [2] is reported as “### (### is ≥75%)”. In addition, at FAAH [5], the “FAAH % Inh 5 mg/kg (mouse)” value is listed as “# (# is <25%)”. In addition, the “ABHD6 % Inh 5 mg/kg (mouse)” value on ABHD6 [6] is on record as “# (# is <25%)”.

As for `O=C(OC(C(F)(F)F)C(F)(F)F)N1CCC2(CCCN2Cc2cc(N3CCS(=O)(=O)CC3)cc(C(F)(F)F)c2)CC1` [Example 42, 1,1,1,3,3,3-Hexafluoropropan-2-yl 1-(3-(1,1-dioxidothiomorpholino)-5-(trifluoromethyl)benzyl)-1,8-diazaspiro[4.5]decane-8-carboxylate], the figures for the inhibition at 1 µM on FAAH [1], at ABHD6 [3] and at MAGL [4] were under 25%, under 25% and over 75%, respectively. Besides, the IC50 at FAAH [1] is over 1 µM; on ABHD6 [3], over 1 µM; on MAGL [4], under 0.1 µM. At MAGL [2], the “MAGL % Inh 5 mg/kg (mouse)” value is reported as “### (### is ≥75%)”. For the same compound, on FAAH [5], the “FAAH % Inh 5 mg/kg (mouse)” value is reported as “# (# is <25%)”. The “ABHD6 % Inh 5 mg/kg (mouse)” value on ABHD6 [6] is given as “# (# is <25%)”.
